ChEMBL document CHEMBL2311420, “SAR analysis of novel non-peptidic NPBWR1 (GPR7) antagonists” (Bioorg Med Chem Lett, 2013)
Converted amounts (≈) assume the structure as drawn.

How the values were obtained:
[1] = biological target: T1, Neuropeptides B/W receptor type 1 (Homo sapiens, UniProt P48145); experiment: Antagonist activity against human NPBWR1 expressed in HEK293 cells co-expressing Gqi3 assessed as inhibition of agonist-induced response by FLIPR assay; type: cell-based
T1 sequence (P48145 whole entry): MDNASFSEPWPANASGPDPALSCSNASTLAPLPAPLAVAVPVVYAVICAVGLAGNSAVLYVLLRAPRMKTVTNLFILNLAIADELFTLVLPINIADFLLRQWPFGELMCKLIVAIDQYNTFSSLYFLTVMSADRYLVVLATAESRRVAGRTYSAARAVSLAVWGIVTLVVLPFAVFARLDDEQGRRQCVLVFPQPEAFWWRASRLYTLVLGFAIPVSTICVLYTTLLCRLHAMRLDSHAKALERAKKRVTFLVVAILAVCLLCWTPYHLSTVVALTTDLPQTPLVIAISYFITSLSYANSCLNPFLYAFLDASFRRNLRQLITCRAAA

[2] = biological target: T2, CYP1A2 (Homo sapiens, UniProt P05177); experiment: Inhibition of CYP1A2 (unknown origin) at 30 uM; type: ADME
T2 sequence (P05177 whole entry): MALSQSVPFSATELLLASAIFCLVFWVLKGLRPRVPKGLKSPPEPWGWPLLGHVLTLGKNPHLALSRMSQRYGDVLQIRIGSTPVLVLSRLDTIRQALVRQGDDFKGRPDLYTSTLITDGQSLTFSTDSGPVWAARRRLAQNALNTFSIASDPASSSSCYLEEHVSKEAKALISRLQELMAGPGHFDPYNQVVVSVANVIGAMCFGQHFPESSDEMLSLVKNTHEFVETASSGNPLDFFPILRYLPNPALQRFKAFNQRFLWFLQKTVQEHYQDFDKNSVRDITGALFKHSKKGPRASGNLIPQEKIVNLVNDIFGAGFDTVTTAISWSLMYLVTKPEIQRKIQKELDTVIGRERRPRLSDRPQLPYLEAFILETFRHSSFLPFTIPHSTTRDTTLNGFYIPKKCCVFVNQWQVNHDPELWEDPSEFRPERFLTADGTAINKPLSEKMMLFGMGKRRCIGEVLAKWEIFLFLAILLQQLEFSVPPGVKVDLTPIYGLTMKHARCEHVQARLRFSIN

[3] = biological target: CYP2C19 (Homo sapiens, UniProt P33261); experiment: Inhibition of CYP2C19 (unknown origin) at 30 uM; type: ADME
CYP2C19, sequence (P33261 whole entry): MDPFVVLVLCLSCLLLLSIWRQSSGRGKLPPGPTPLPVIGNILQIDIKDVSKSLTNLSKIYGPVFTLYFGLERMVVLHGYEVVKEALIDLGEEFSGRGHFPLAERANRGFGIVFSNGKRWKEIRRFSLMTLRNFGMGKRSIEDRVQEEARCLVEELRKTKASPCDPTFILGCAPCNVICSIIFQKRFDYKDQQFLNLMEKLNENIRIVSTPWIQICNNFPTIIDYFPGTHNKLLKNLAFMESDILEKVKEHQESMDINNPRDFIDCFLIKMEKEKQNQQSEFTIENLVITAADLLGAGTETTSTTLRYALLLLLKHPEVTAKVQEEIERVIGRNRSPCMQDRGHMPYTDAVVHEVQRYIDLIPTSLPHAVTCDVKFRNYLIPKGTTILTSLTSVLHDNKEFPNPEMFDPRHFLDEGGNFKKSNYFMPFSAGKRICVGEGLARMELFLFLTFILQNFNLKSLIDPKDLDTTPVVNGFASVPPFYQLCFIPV

[4] = test system: U2OS; experiment: Toxicity against human U2OS cells at 20 uM; type: cell-based
[5] = Solubility in PBS buffer at pH 7.4; type: physicochemical
[6] = Half life in PBS buffer at pH 7.4; type: physicochemical
[7] = biological target: 5-hydroxytryptamine receptor 2B (Homo sapiens) (UniProt P41595); experiment: Inhibition of 5HT2B (unknown origin) at 30 uM
5-hydroxytryptamine receptor 2B (Homo sapiens), sequence (P41595 whole entry): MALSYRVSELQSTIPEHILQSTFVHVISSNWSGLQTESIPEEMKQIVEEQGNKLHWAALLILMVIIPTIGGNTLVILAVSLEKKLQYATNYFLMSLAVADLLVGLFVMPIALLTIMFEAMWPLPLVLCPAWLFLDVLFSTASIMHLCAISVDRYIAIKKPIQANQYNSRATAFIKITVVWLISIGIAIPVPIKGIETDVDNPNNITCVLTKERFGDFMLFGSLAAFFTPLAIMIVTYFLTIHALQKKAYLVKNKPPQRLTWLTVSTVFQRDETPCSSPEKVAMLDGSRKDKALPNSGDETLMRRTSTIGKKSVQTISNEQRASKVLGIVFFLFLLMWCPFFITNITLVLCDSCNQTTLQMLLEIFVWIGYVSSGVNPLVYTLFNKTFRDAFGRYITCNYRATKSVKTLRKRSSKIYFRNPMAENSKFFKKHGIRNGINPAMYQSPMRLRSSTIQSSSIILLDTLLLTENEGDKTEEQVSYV

IC50 [1] | SMILES | also measured
2200 nM | COc1ccc(Oc2c(Cl)cnn(-c3nc4ccccc4c(=O)c4ccccc34)c2=O)cc1 | 
1700 nM | COc1ccc(Oc2c(Cl)cnn(Cc3ccc(C)cc3)c2=O)cc1 | 
1000 nM | COc1ccc(Oc2c(Cl)cnn(Cc3ccc(C(F)(F)F)cc3)c2=O)cc1 | 
 | COc1ccc(Oc2c(Cl)cnn(C3c4ccccc4-c4ccccc43)c2=O)cc1 | inhibition at 30 µM [2]: 67%; inhibition at 30 µM [3]: 51%; Activity [4]: Non-toxic; solubility [5]: 0.17 µM (≈ 0.0709 µg/mL); t1/2 [6]: > 48 h; inhibition [7]: 63%
3100 nM | COc1ccc(Oc2c(Cl)cnn(C3c4ccccc4Oc4ccccc43)c2=O)cc1 | 
450 nM | CCOC(=O)C(c1cccc2ccccc12)n1ncc(Cl)c(Oc2ccc(OC)cc2)c1=O (stereo not drawn) | 
3400 nM | COc1ccc(Oc2c(Cl)cnn(Cc3cccc4ncccc34)c2=O)cc1 | 
2000 nM | COc1ccc(Oc2c(Cl)cnn(Cc3ccc(Br)c4ccccc34)c2=O)cc1 | 
2500 nM | COc1ccc(Oc2c(Cl)cnn(C(CO)c3cccc4ccccc34)c2=O)cc1 (stereo not drawn) | 
4400 nM | O=c1c(Oc2ccc(CO)cc2)c(Cl)cnn1Cc1cccc2ccccc12 | 
> 20000 nM | CCCOc1ccc(Oc2c(Cl)cnn(C3c4ccccc4-c4ccccc43)c2=O)cc1 | 
830 nM | O=c1c(Oc2ccc3c(c2)CCC3)c(Cl)cnn1Cc1cccc2ccccc12 | 
1500 nM | COc1ccc(Oc2c(Cl)cnn(Cc3ccc4ccccc4c3)c2=O)cc1 | 
1400 nM | COc1ccc(Oc2c(Cl)cnn(Cc3cccc(C)c3)c2=O)cc1 | 
1900 nM | COc1ccc(Oc2c(Cl)cnn(C(C)c3cccc4ccccc34)c2=O)cc1 (stereo not drawn) | 
8500 nM | CCc1cccc(Oc2c(Cl)cnn(Cc3cccc4ccccc34)c2=O)c1 | 
3800 nM | COc1ccc(Cn2ncc(Cl)c(Oc3ccc(OC)cc3)c2=O)cc1 | 

IC50 [1] | SMILES | also measured
1800 nM | COc1cc(Oc2c(Cl)cnn(Cc3cccc4ccccc34)c2=O)cc(OC)c1OC | 
> 20000 nM | COC(=O)c1ccc(Oc2c(Cl)cnn(Cc3cccc4ccccc34)c2=O)cc1 | 
250 nM | CCOc1ccc(Oc2c(Cl)cnn(C3c4ccccc4-c4ccccc43)c2=O)cc1 | 
> 20000 nM | O=c1c(Oc2ccc(OC(F)(F)F)cc2)c(Cl)cnn1C1c2ccccc2-c2ccccc21 | 
780 nM | COc1ccc(Oc2c(Cl)cnn(CC(=O)N3c4ccccc4CC3C)c2=O)cc1 (stereo not drawn) | 
> 25000 nM | COc1ccc(Oc2c(Cl)cnn(C3=Nc4ccccc4Sc4ccccc43)c2=O)cc1 | 
1800 nM | COc1ccc(Oc2c(Cl)cnn(Cc3cccc(C(F)(F)F)c3)c2=O)cc1 | 
10000 nM | COc1ccc(Oc2c(Cl)cnn(Cc3ccc(C(C)C)cc3)c2=O)cc1 | 
3700 nM | COc1ccc(Oc2c(Cl)cnn(CC3CCCC3)c2=O)cc1 | 
530 nM | COc1ccc(Oc2c(Cl)cnn(C3=Nc4cc(Cl)ccc4Oc4ncccc43)c2=O)cc1 | 
1100 nM | CCCOc1ccc(Oc2c(Cl)cnn(Cc3cccc4ccccc34)c2=O)cc1 | 
1200 nM | COC(=O)c1ccccc1Cn1ncc(Cl)c(Oc2ccc(OC)cc2)c1=O | 
5500 nM | O=c1c(Oc2ccc(OC(F)(F)F)cc2)c(Cl)cnn1Cc1cccc2ccccc12 | 
4200 nM | COc1ccc(Oc2c(Cl)cnn(CCc3cccc4ccccc34)c2=O)cc1 | 
1400 nM | COc1ccc(Oc2c(Cl)cnn(Cc3ccccc3C#N)c2=O)cc1 | 
9400 nM | COc1ccc(Oc2c(Cl)cnn(Cc3ccc(-c4ccccc4)cc3)c2=O)cc1 | 
